Data set [1] has as its target T1, CypE (Homo sapiens, UniProt Q9UNP9).
T1 construct: PPIE (UniProtKB Entry Q9UNP9: residues 131–301); host or cells: E. coli BL21(DE3)
Nature of the data set: Competition anisotropy binding assay with A26-Fl. How it is done: (§1) Adapted from previous work[52], cyclophilin in assay buffer (25 mM HEPES pH 8.0, 100 mM NaCl, 0.01% Triton X-100) at a pre-determined concentration from Supplementary Table 6 was incubated with 0.5 nM A26-Fl for 10 min at room temperature in a flat-bottom black untreated 96-well plate (Corning). Competitor macrocycle was then added to each well and incubated for 24 h. Final assay volume was 100 µL with 0.25% DMSO. Fluorescence anisotropy was then measured using a Tecan Spark plate reader using 492 nm/523 nm excitation/emission settings.

Data set [2] relates to HeLa cells. Nature of the data set: Fluorescence microscopy of Cy5-conjugated compounds. The format is cell-based, human. Here is the method: Cells were seeded into 96-well, black, clear-bottom, TC-treated plates, in DMEM supplemented with 10% FBS 24 h prior at a density where wells were ~80% confluent at the time of the experiment. Medium was removed and cells were then stained with 50 µL mixture containing Cy5-labeled compound (6 µM) in Kreb’s ringer solution HEPES buffered pH 7.2 (KRB), for 1 h at 37 °C. Then, 50 µL Hoechst 33342 (8 µM) and Mitotracker Green FM (0.1 µM) in KRB was added directly to wells containing cells and incubated for 15 min at 37 °C. Medium was removed and cells were washed twice with 100 µL KRB. Cells were then kept adherent to the wells in 100 µL KRB for imaging. Fluorescence microscopy was conducted on an Opera Phenix Plus High-Content Screening System, using Alexa 488, Alexa 647, and Hoescht 33342 channels. Images were analyzed using Harmony v.4.9.

The test system of data set [3] is isolated mouse liver mitochondria. Nature of the data set: Mitochondrial calcium retention capacity assay (mPTP opening). The following applies: for calcium retention capacity before mPTP opening (in words): 2 µM CsA, 10 µM B52-Cy5/*B52-Cy5, 20 µM B53-Cy5/*B53-Cy5, vs DMSO; for Normalized # Pulses (calcium retention capacity ratio to DMSO): 60 µM CaCl2 pulses, individual mitochondrial preparations. How it is done:
All procedures used in animal studies were approved by the Institutional Animal Care and Use Committee at Massachusetts General Hospital. Female C57BL/6J mice (Jackson Labs) age 10–12 weeks were anesthetized by isoflurane. The liver from one mouse was rinsed in ice-cold PBS, minced in ice-cold isolation buffer containing 0.28 M sucrose, 10 mM Hepes-KOH pH 7.2, 0.2 mM EDTA and 1% (w/v) bovine serum albumin, gently homogenized with four strokes of a tight-fitting Teflon pestle at 1,000 r.p.m., and then centrifuged for 10 min at 600g at 4 °C. The supernatant was recovered and centrifuged for 10 min at 8,000g at 4 °C. The loose outer buffy coat was rinsed off and the pellet resuspended gently in isolation buffer and the spins were repeated. […] The suspension was kept on ice and all assays performed within 4–6 h following isolation. Quality control was done with every preparation by adding 250 mcg mitochondria to 500 µL assay buffer containing 137 mM KCl, 10 mM Hepes-KOH pH 7.2, 2.5 mM MgCl2, 5 mM each of glutamate and malate, and 3 mM KH2PO4. Sequential 150 µM ADP pulses were then delivered. Only preparations with respiratory control ratio >6 (as assessed by the ratio of ADP-coupled state 3 respiration to state 4 respiration) were used for further experiments. Measurements were made in a custom-built spectrometer.
Two hundred and fifty micrograms of mouse liver mitochondria isolated as above were added to 500 µL assay buffer containing 125 mM KCl, 20 mM Hepes-KOH pH 7.2, 1 mM MgCl2, 5 mM each of glutamate and malate, and 3 mM KH2PO4. 0.5 µM Calcium Green 5N (Molecular Probes) was included to monitor extramitochondrial free Ca^2+. Fluorescence was continuously monitored in the custom-built fluorimeter described above, with excitation 470 nm and emission 520–560 nm. […] The calcium retention capacity ratio was obtained by normalizing the number of Ca^2+ pulses that could be taken up in a given condition by that taken up under DMSO control conditions, as previously described.

In data set [4] the target is T2, CypB E121S (Homo sapiens, UniProt P23284, E121S).
T2 construct: Lane 14- SNA-CypB E121S (34-216);; His6 tag with TEV site (2BT vector); SNA remnant stays on the N-terminus (N, cleaved yes); made in house; host or cells: E. coli BL21(DE3)
T2 sequence (P23284 34-216 E121S): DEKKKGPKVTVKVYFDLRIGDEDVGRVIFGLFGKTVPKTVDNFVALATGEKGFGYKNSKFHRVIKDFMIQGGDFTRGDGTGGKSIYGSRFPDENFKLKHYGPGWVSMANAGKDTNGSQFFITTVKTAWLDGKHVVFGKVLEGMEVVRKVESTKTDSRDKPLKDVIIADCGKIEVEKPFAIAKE
In words: biochemical. The essentials:
(§2)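 Cyclophilin (5 nM final) in 25 mM HEPES pH 7.3, 100 mM NaCl, 0.01% Triton X-100 was preincubated with compound (0.25% DMSO) 5 min at 2–3 °C, then with 25 µM α-chymotrypsin 5 min. Suc-AAPF-AMC (5 µM, in LiCl/trifluoroethanol) started the reaction; AMC fluorescence read every 1 s for 330 s.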

In data set [5] the target is T3, CypE K217A (Homo sapiens, UniProt Q9UNP9, K217A).
T3 construct: Lane 5- GS-CypE K217A (131-301);; His6 tag with thrombin site (pET28a LIC); GS remnant stays on the N-terminus (N, cleaved yes); host or cells: E. coli BL21(DE3)
T3 sequence (Q9UNP9 131-301 K217A): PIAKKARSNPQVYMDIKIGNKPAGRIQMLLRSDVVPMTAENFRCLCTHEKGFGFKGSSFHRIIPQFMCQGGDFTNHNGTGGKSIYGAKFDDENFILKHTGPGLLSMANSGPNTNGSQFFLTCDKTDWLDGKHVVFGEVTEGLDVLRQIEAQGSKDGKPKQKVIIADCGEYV
In words: Chymotrypsin coupled prolyl-isomerase assay. The format is biochemical. The essentials:
as §2

Data set [6] concerns the target Cyp40 (Homo sapiens, UniProt Q08752). Nature of the data set: Competition anisotropy binding assay with A26-Fl. The arrangement: PPID (UniProtKB Entry Q08752: residues 1–183); made in house; host or cells: E. coli BL21(DE3). The conditions noted are these: FP competition with 0.5 nM A26-Fl, 24 h. Here is the method: as §1
Where [7] appears, read: prolyl-isomerase inhibition, read-out: IC50 CypB E121S.
Where [8] appears, read: mutant CypB E121S, read-out: Mutant Cyclophilin Prolyl Isomerase Inhibition IC50 Values, CypB E121S.

The values below come from publication PMC9596378, “Discovery and molecular basis of subtype-selective cyclophilin inhibitors” (Nature Chemical Biology, 2022).

Where “and” joins values, the source holds several entries; their conditions need not be identical. Equal values may be shown once. Read-outs that look alike come from different tables or passages of the source. Some results are limits rather than exact numbers.

T1 sequence (Q9UNP9 131-301): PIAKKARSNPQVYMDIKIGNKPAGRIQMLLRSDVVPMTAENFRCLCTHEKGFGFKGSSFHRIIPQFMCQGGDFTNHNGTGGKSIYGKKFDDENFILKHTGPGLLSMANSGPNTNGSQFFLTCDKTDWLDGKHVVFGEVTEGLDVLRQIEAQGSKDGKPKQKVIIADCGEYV
Chain of Cyp40 (Q08752 1-183): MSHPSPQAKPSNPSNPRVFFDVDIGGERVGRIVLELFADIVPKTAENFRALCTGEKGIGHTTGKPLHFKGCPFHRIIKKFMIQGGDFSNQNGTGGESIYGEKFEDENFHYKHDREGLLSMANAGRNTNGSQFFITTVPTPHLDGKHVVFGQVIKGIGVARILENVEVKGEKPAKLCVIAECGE

For the molecule `NC(=O)[C@@H]1CCNC(=O)/C=C/C(=O)N2CCC[C@](Cc3ccccc3)(C2)C(=O)N[C@@H](Cc2ccc(-c3cccc(B(O)O)c3)cc2)C(=O)NCc2ccccc2CC(=O)N1` [Compound C6A], affinity in data set [1] (FP competition with 0.5 nM A26-Fl, 24 h) was put at a Ki of 7000 nM. The “reduced potency relative to C3A” value in data set [1] (FP competition with A26-Fl, CypE) turned out to be 100 fold.
Regarding `C[N+]1=C(C=CC=CC=C2N(CCCCCC(=O)NCCNC(=O)C3CCNC(=O)C=CC(=O)N4CCCC(Cc5ccccc5)(C4)C(=O)NC(Cc4ccc(-c5ccc(CC(C(=O)O)C(=O)O)cc5)cc4)C(=O)NCc4ccccc4CC(=O)N3)c3ccccc3C2(C)C)C(C)(C)c2ccccc21` (stereo not shown) [Compound B52-Cy5], the “plasma membrane permeability / mitochondrial localization (in words)” value in data set [2] is “poor and did not observe efficient plasma membrane permeability”. Moreover, in data set [3], the “calcium retention capacity before mPTP opening (in words)” value is listed as “substantially increased calcium retention capacity”. The “Normalized # Pulses (calcium retention capacity ratio to DMSO)” value in data set [3] (10 µM compound) was 4.333 and 3 and 4.
With `NCCOCCNC(=O)[C@@H]1CCNC(=O)/C=C/C(=O)N2CCC[C@](Cc3ccccc3)(C2)C(=O)N[C@@H](Cc2ccc(-c3ccc(C(CC(=O)O)CC(=O)O)cc3)cc2)C(=O)NCc2ccccc2CC(=O)N1` [Compound B53], the IC50 (in general, the concentration that gives 50% inhibition) in data set [4] (setting [7]) was determined as 50 nM.
As for `NCCOCCNC(=O)[C@@H]1CCNC(=O)/C=C/C(=O)N2CCC[C@](Cc3ccccc3)(C2)C(=O)N[C@@H](Cc2ccc(-c3ccc(CCC(=O)O)cc3)cc2)C(=O)NCc2ccccc2CC(=O)N1` [Compound B23], in data set [4] (setting [8]), the IC50 was 8 nM.
With `NCCOCCNC(=O)[C@@H]1CCNC(=O)/C=C/C(=O)N2CCC[C@](Cc3ccccc3)(C2)C(=O)N[C@@H](Cc2ccc(-c3ccc(CC(C(=O)O)C(=O)O)cc3)cc2)C(=O)NCc2ccccc2CC(=O)N1` [Compound B52], the IC50 in data set [4] (setting [7]) was found to be 8 nM.
Regarding `C[N+]1=C(C=CC=CC=C2N(CCCCCC(=O)NCCNC(=O)C3CCNC(=O)C=CC(=O)N4CCCC(Cc5ccccc5)(C4)C(=O)NC(Cc4ccc(-c5ccc(C(CC(=O)O)CC(=O)O)cc5)cc4)C(=O)NCc4ccccc4CC(=O)N3)c3ccccc3C2(C)C)C(C)(C)c2ccccc21` (stereo not shown) [*B53-Cy5], the “plasma membrane permeability / mitochondrial localization (in words)” value in data set [2] is given as “poor”. Moreover, the “calcium retention capacity before mPTP opening (in words)” value in data set [3] is “do not influence calcium retention capacity”. Besides, the “Normalized # Pulses (calcium retention capacity ratio to DMSO)” value in data set [3] (20 µM compound) was found to be 1.
In the case of `NCCOCCNC(=O)[C@@H]1CCNC(=O)/C=C/C(=O)N2CCC[C@](Cc3ccccc3)(C2)C(=O)N[C@@H](Cc2ccc(-c3ccc(C#CC(=O)O)cc3)cc2)C(=O)NCc2ccccc2CC(=O)N1` [Compound B25], in data set [4] (setting [8]), the IC50 was determined as 2.2 nM.
Consider `C[N+]1=C(C=CC=CC=C2N(CCCCCC(=O)NCCNC(=O)C3CCNC(=O)C=CC(=O)N4CCCC(Cc5ccccc5)(C4)C(=O)NC(Cc4ccc(-c5ccc(C(CC(=O)O)CC(=O)O)cc5)cc4)C(=O)NCc4ccccc4CC(=O)N3)c3ccccc3C2(C)C)C(C)(C)c2ccccc21` (stereo not shown) [Compound B53-Cy5], for which the “plasma membrane permeability / mitochondrial localization (in words)” value in data set [2] was “poor and did not observe efficient plasma membrane permeability”. For the same molecule, in data set [3], the “calcium retention capacity before mPTP opening (in words)” value is recorded as “substantially increased calcium retention capacity”. For the same molecule, the “Normalized # Pulses (calcium retention capacity ratio to DMSO)” value in data set [3] (20 µM compound) was 2.667 and 1.25 and 2.
Regarding `C[N+]1=C(C=CC=CC=C2N(CCCCCC(=O)NCCNC(=O)C3CCNC(=O)C=CC(=O)N4CCCC(Cc5ccccc5)(C4)C(=O)NC(Cc4ccc(-c5ccc(CC(C(=O)O)C(=O)O)cc5)cc4)C(=O)NCc4ccccc4CC(=O)N3)c3ccccc3C2(C)C)C(C)(C)c2ccccc21` (stereo not shown) [*B52-Cy5], the “plasma membrane permeability / mitochondrial localization (in words)” value in data set [2] is listed as “poor”. Moreover, the “calcium retention capacity before mPTP opening (in words)” value in data set [3] is “do not influence calcium retention capacity”. For the same molecule, the “Normalized # Pulses (calcium retention capacity ratio to DMSO)” value in data set [3] (10 µM compound) amounted to 1.
With `NC(=O)C1CCNC(=O)C=CC(=O)N2CCCC(Cc3ccccc3)(C2)C(=O)NC(Cc2ccc(-c3ccc(C=O)c(B(O)O)c3)cc2)C(=O)NCc2ccccc2CC(=O)N1` (stereo not shown) [Compound C3A], the “less potent at inhibiting K217A prolyl-isomerase activity compared to wild-type CypE” value in data set [5] was determined as 150 fold. For the same molecule, the IC50 in data set [5] (mutant CypE K217A, read-out: Mutant Cyclophilin Prolyl Isomerase Inhibition IC50 Values, CypE K217A) was 19 nM. Also, the “selectivity for CypE over other tested cyclophilins” value in data set [1] (FP competition with A26-Fl) is recorded as not below 10 fold. The inhibition constant Ki (as a rule, a dissociation constant, usually derived from enzyme kinetics or from competition with a known ligand) in data set [6] was more than 10000 nM.
